Assays:
[1] = molecular target: T1, organic anion transporting polypeptide (OATP)1B1 (Homo sapiens, UniProt Q9Y6L6); assay: Drug interaction potential: OATP1B1
T1 sequence (Q9Y6L6 1-691): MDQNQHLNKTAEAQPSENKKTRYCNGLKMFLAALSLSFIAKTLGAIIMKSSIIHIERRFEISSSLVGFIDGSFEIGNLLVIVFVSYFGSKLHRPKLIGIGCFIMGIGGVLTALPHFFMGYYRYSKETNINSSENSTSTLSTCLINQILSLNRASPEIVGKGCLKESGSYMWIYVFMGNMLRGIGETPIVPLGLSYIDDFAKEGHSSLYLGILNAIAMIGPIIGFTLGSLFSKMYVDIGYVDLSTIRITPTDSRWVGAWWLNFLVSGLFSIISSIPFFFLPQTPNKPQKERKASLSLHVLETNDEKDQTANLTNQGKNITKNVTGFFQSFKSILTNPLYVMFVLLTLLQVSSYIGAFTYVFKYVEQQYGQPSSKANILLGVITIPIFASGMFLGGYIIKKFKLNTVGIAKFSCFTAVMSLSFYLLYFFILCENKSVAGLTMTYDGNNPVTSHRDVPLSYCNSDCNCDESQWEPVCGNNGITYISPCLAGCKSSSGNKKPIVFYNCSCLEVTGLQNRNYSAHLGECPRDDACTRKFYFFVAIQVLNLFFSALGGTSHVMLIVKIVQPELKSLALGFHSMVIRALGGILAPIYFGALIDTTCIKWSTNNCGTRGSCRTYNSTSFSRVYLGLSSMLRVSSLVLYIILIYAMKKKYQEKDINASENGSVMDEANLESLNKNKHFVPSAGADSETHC
Method: Elagolix is a substrate of CYP3A, P-gp, and organic anion transporting polypeptide (OATP)1B1. Clinically meaningful interactions are not expected when ELAGOLIX is co-administered with drugs that inhibit CYP3A or P-gp.
Co-administration of ELAGOLIX with drugs that inhibit OATP1B1 may increase elagolix plasma concentrations. Use of potent OATP1B1 inhibitors are not recommended with ELAGOLIX 200 mg BID regimen.

[2] = test system: premenopausal women with endometriosis with associated pain; assay: Phase 3 Studies EM-I and EM-II together, with extension studies; type: in vivo, human; conditions: for Depressed Mood, depression, depressive symptoms and or tearfulness, %: placebo 2.3; for Mood altered, mood swings, %: placebo 3.4; for Mean Intensity score (1 = spotting to 4 = heavy) / Mean bleeding/spotting days in prior 28 days: Month 3; for Mean Intensity score (1 = spotting to 4 = heavy): placebo 2.6 to 2.4; for Mean bleeding/spotting days in prior 28 days: placebo 5.4 to 4.6; for Percentage of patients with adverse reaction: Anxiety / Percentage of patients with adverse reaction: Arthralgia / Percentage of patients with adverse reaction: Insomnia: placebo 3; for Percentage of patients with adverse reaction: Nasopharyngitis / Percentage of patients with adverse reaction: Sinusitis: placebo 4; for Percentage of patients with adverse reaction: Upper Respiratory Tract Infection: placebo 5; for Percentage of patients with adverse reaction: Hot Flush: placebo 9; for Percentage of patients with adverse reaction: Headache: placebo 12; for Percentage of patients with adverse reaction: Nausea: placebo 13; for Percentage of patients with adverse reaction: Amenorrhoea: placebo <1; for Mean increase from pretreatment baseline in HDL-C / Mean increase from pretreatment baseline in LDL-C / Mean increase from pretreatment baseline in triglycerides: 6-month treatment; for Patients who discontinued therapy due to adverse reactions: EM-I and EM-II; for Patients with Z-score below the normal lower bound of −2.0: following 12 months of treatment; for Patients with asymptomatic elevations of serum ALT to at least 3-times the upper limit of the reference range: placebo 1/696, 0.1%
Source text: Each placebo-controlled study assessed the reduction in endometriosis-associated pain over 6 months of treatment. More than 75 percent of women who completed Study EM-I and EM-II enrolled in the extension studies for an additional 6 month treatment period. Subjects were followed for up to 12 months post-treatment. Women in these studies also provided a daily self-assessment of their endometriosis pain using the Numeric Rating Scale (NRS), on a scale ranging from 0 (no pain) to 10 (worst pain ever). […] The population age range was 18-49 years old. Women who completed six months of treatment and met eligibility criteria continued treatment in two blinded six-month extension studies, for a total treatment duration of up to 12 months. In the placebo-controlled and extension clinical studies, BMD was measured by DXA. Changes observed in BMD at other anatomical sites (femoral neck, total hip) were generally smaller than lumbar spine.

SMILES: COc1cccc(-c2c(C)n(Cc3c(F)cccc3C(F)(F)F)c(=O)n(C[C@H](NCCCC(=O)O)c3ccccc3)c2=O)c1F [Elagolix, 4-((R)-2-[5-(2-fluoro-3-methoxy-phenyl)-3-(2-fluoro-6-trifluoromethyl-benzyl)-4-methyl-2,6-dioxo-3,6-dihydro-2H-pyrimidin-1-yl]-1-phenyl-ethylamino)-butyric acid]
- Substrate of OATP1B1 [1]: substrate
- Completed Suicide, % ([2]; 150 mg Once Daily (N = 475)): (0.2) %
- Suicidal ideation, % ([2]; 150 mg Once Daily (N = 475)): (0.2) %
- Depressed Mood, depression, depressive symptoms and or tearfulness, % ([2]; 150 mg Once Daily (N = 475)): (2.7) %
- Mood altered, mood swings, % ([2]; 150 mg Once Daily (N = 475)): (5.7) %
- Mean Intensity score (1 = spotting to 4 = heavy) ([2]; 150 mg Once Daily, baseline 2.6): 2.2
- Mean bleeding/spotting days in prior 28 days ([2]; 150 mg Once Daily, baseline 5.3): 2.8 days
- Discontinuations due to hot flush ([2]; 150 mg QD): 0.8%
- Discontinuations due to nausea ([2]; 150 mg QD): 0.8%
- Numeric Rating Scale (NRS) endometriosis pain scores ([2]; 150 mg QD and 200 mg BID, Month 3 and Month 6): highly statistically (p<0.001) significant reduction in NRS scores compared to placebo
- Percentage of patients with adverse reaction: Anxiety ([2]; 150 mg QD, N = 475): 3%
- Percentage of patients with adverse reaction: Arthralgia ([2]; 150 mg QD, N = 475): 3%
- Percentage of patients with adverse reaction: Insomnia ([2]; 150 mg QD, N = 475): 6%
- Percentage of patients with adverse reaction: Nasopharyngitis ([2]; 150 mg QD, N = 475): 6%
- Percentage of patients with adverse reaction: Sinusitis ([2]; 150 mg QD, N = 475): 5%
- Percentage of patients with adverse reaction: Upper Respiratory Tract Infection ([2]; 150 mg QD, N = 475): 6%
- Percentage of patients with adverse reaction: Hot Flush ([2]; 150 mg QD, N = 475): 23%
- Percentage of patients with adverse reaction: Headache ([2]; 150 mg QD, N = 475): 17%
- Percentage of patients with adverse reaction: Nausea ([2]; 150 mg QD, N = 475): 11%
- Percentage of patients with adverse reaction: Amenorrhoea ([2]; 150 mg QD, N = 475): 4%
- Mean increase from pretreatment baseline in HDL-C ([2]; 150 mg QD): 2.24 mg/dL
- Mean increase from pretreatment baseline in LDL-C ([2]; 150 mg QD): 5.25 mg/dL
- Mean increase from pretreatment baseline in triglycerides ([2]; 150 mg QD): 0.42 mg/dL
- Patients who discontinued therapy due to adverse reactions ([2]; 150 mg QD): 5.5%
- % Subjects with lumbar spine Z-score ≤−1.5 ([2]; 150 mg QD, on treatment Month 6, N 360): 0.8%
- Mean Percent Change from baseline in lumbar spine bone mineral density ([2]; 150 mg QD, on treatment Month 6, N 360, 95% CI −0.79, −0.26): −0.52%
- % Subjects with lumbar spine Z-score ≤−1.5 ([2]; 150 mg QD, on treatment Month 12, N 235): 1.3%
- Mean Percent Change from baseline in lumbar spine bone mineral density ([2]; 150 mg QD, on treatment Month 12, N 235, 95% CI −1.29, −0.45): −0.87%
- Estradiol level (suppression to) ([2]; 150 mg QD, partial suppression): approximately 50 pg/mL
- Patients with Z-score below the normal lower bound of −2.0 ([2]; 150 mg daily dose): no patient
- Patients with asymptomatic elevations of serum ALT to at least 3-times the upper limit of the reference range ([2]; 150 mg once daily, 1/450): 0.2%
- Incidence of amenorrhea (no bleeding or spotting in a 56-day interval) ([2]; 150 mg once daily, first six months of treatment, placebo less than 1%): 6-17%
- Incidence of amenorrhea (no bleeding or spotting in a 56-day interval) ([2]; 150 mg once daily, second 6 months of treatment): 11-15%
- Discontinuations due to hot flush ([2]; 200 mg BID): 2.5%
- Discontinuations due to nausea ([2]; 200 mg BID): 1.5%
- Percentage of patients with adverse reaction: Anxiety ([2]; 200 mg BID, N = 477): 5%
- Percentage of patients with adverse reaction: Arthralgia ([2]; 200 mg BID, N = 477): 5%
- Percentage of patients with adverse reaction: Insomnia ([2]; 200 mg BID, N = 477): 9%
- Percentage of patients with adverse reaction: Nasopharyngitis ([2]; 200 mg BID, N = 477): 6%
- Percentage of patients with adverse reaction: Sinusitis ([2]; 200 mg BID, N = 477): 6%
- Percentage of patients with adverse reaction: Upper Respiratory Tract Infection ([2]; 200 mg BID, N = 477): 4%
- Percentage of patients with adverse reaction: Hot Flush ([2]; 200 mg BID, N = 477): 45%
- Percentage of patients with adverse reaction: Headache ([2]; 200 mg BID, N = 477): 20%
- Percentage of patients with adverse reaction: Nausea ([2]; 200 mg BID, N = 477): 16%
- Percentage of patients with adverse reaction: Amenorrhoea ([2]; 200 mg BID, N = 477): 7%
- Mean increase from pretreatment baseline in HDL-C ([2]; 200 mg BID): 4.16 mg/dL
- Mean increase from pretreatment baseline in LDL-C ([2]; 200 mg BID): 13.10 mg/dL
- Mean increase from pretreatment baseline in triglycerides ([2]; 200 mg BID): 11.08 mg/dL
- Patients who discontinued therapy due to adverse reactions ([2]; 200 mg BID): 9.6%
- Percent change from baseline of averaged daily opioid pills (FIG. A-5) ([2]; 200 mg BID, compared with placebo): significant decrease from baseline in the percent change of averaged daily opioid pills at Months 3 through 6
- Patients with Z-score below the normal lower bound of −2.0 ([2]; 200 mg BID): less than 1%
- Estradiol level (suppression to) ([2]; 200 mg BID, nearly full suppression): approximately 12 pg/mL
- % Subjects with lumbar spine Z-score ≤−1.5 ([2]; 200 mg BID, on treatment Month 6, N 365): 4.1%
- Mean Percent Change from baseline in lumbar spine bone mineral density ([2]; 200 mg BID, on treatment Month 6, N 365, 95% CI −2.81, −2.28): −2.54%
- % Subjects with lumbar spine Z-score ≤−1.5 ([2]; 200 mg BID, on treatment Month 12, N 217): 5.1%
- Mean Percent Change from baseline in lumbar spine bone mineral density ([2]; 200 mg BID, on treatment Month 12, N 217, 95% CI −4.19, −3.32): −3.76%
- Suicidal ideation, % ([2]; 200 mg Twice Daily (N = 477)): (0.2) %
- Depressed Mood, depression, depressive symptoms and or tearfulness, % ([2]; 200 mg Twice Daily (N = 477)): (6.1) %
- Mood altered, mood swings, % ([2]; 200 mg Twice Daily (N = 477)): (5.2) %
- Mean Intensity score (1 = spotting to 4 = heavy) ([2]; 200 mg Twice Daily, baseline 2.5): 2.0
- Mean bleeding/spotting days in prior 28 days ([2]; 200 mg Twice Daily, baseline 5.7): 0.8 days
- Patients with asymptomatic elevations of serum ALT to at least 3-times the upper limit of the reference range ([2]; 200 mg twice daily, 5/443): 1.1%
- Incidence of amenorrhea (no bleeding or spotting in a 56-day interval) ([2]; 200 mg twice daily, first six months of treatment, placebo less than 1%): 13-52%
- Incidence of amenorrhea (no bleeding or spotting in a 56-day interval) ([2]; 200 mg twice daily, second 6 months of treatment): 46-57%
- Percentage of days in which rescue opioid medication was taken ([2]; 150 QD and 200 BID, pooled analysis, compared with placebo): significant reduction in the percentage of days in which rescue opioid medication was taken
- Mean decreases from Baseline in dysmenorrhea scores ([2]; both treatment groups (150 mg QD, 200 mg BID)): statistically significantly greater than placebo beginning at Month 1 and persisted through Month 6
- BMD after stopping treatment ([2]; both treatment groups, lumbar spine, total hip and femoral neck, post-treatment months 6 and 12): progressive recovery of BMD
- Durability of improvement in extension studies EM-III and EM-IV ([2]; patients maintained on their dose): durability of improvement in dysmenorrhea, NMPP and dyspareunia was demonstrated for a total of 12 months
